Source: patent publication US11654101B2, “Use of magnolia, juniper or violet absolute in cosmetics for depigmenting the skin” (ROBERTET S.A., priority 2017, dated 2023)

Tested on: murine melanocytes B16-F10
Assay: Tests on B16 melanocytes, dosing of the intracellular melanin
Assay type: cell-based
Details: B16-F10 cells incubated 24 h at 37° C.; intracellular melanin content, absorbance 405 nm
Protocol: […] model tests on melanin-producing cells, the murine melanocytes B16-F10, have been necessary. The decrease in the cellular tyrosinase activity, associated with a reduction of the intracellular melanin content, while preserving the survival of the cells by non-cytotoxic concentrations, have then been investigated. For this purpose, the B16-F10 cells have been seeded into 24-well plates, and incubated for 24 h at 37° C. with several concentrations of different selected raw materials. […] Afterwards, the cells are lysed, and centrifuged. In turn, the cell pellet is dissolved by a NaOH 1N solution and incubated for 1 hour at 70° C. before being deposited in a 96-well plate put in the spectrophotometer at 405 nm. Afterwards, a comparison with the absorbance of a standard melanin calibrated range allows determining the intracellular melanin content of each condition and checking on the inhibitor effect of the melanogenesis by the different raw materials.

**Q.** How did the “Effective IC50” value turn out when `O=c1cc(CO)occ1O` [Kojic acid, kojic acid] was run?
**A.** The value was 214 ppm.
